In experiment [1] the target is T1, PRMT5 (Homo sapiens, UniProt O14744).
T1 construct: purchased Viva (custom protein)
Kind of experiment: PRMT5 biochemical IC50 assay with MTA as cofactor. The settings on record: PRMT5, MTA as cofactor; read-out: MTA IC50.

Experiment [2] addresses T1, PRMT5. Nature of the experiment: PRMT5 biochemical IC50 assay with no cofactor. The settings on record: PRMT5, no cofactor; read-out: No Cofactor/ rel IC50. An excerpt: Table 1 indicates IC50 values (μM) against PRMT5 for exemplary compounds in the presence of SAM as cofactor, with no cofactor, and with MTA as cofactor, respectively (columns 4-6). […] Ki values can be calculated from the IC50 values as described in the Examples section. As detailed in the Examples section, for the assay performed in the presence of SAM, IC50=Ki×1.5 (Ki=IC50/1.5).

The subject of experiment [3] is HAP1 MTAP-deleted cell line. Nature of the experiment: Viability assay, MTAP-deleted cell line. Format: cell-based. The note with it: Homo sapiens, HAP1, viability assay, MTAP-deleted cell line; read-out: HAP1 MTAP deleted viability. An excerpt: Table 1 additionally indicates IC50 values in a viability assay for the MTAP-deleted cell line (column 10), indicating the effect of treatment with compound on cell survival.

Experiment [4] deals with HAP1 MTAP-deleted cell line. Kind of experiment: SDMA in-cell western assay, HAP1 MTAP-deleted. It is filed as cell-based. The note with it: for IC50: Homo sapiens, HAP1, SDMA in-cell western, HAP1 MTAP-deleted, read-out: HAP 1 MTAP deleted IC50; for MTAP intact/deleted ratio: IC50 ratio HAP1 MTAP-intact / HAP1 MTAP-deleted, SDMA in-cell western. In short, it runs like this:
(§1)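 Compounds were tested in HAP1 cells differing only in MTAP status (endogenous expression versus null). Cellular SDMA levels were then measured by in-cell western, giving an IC50 in each background.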

In experiment [5] the target is T1, PRMT5. Kind of experiment: PRMT5 biochemical IC50 assay with SAM as cofactor. The settings on record: PRMT5, SAM as cofactor; read-out: SAM IC50.
The test system of experiment [6] is HAP1 MTAP-intact cell line. Nature of the experiment: SDMA in-cell western assay, HAP1 MTAP-intact. The settings on record: Homo sapiens, HAP1, SDMA in-cell western, HAP1 MTAP-intact; read-out: MTAP HAP1 intact IC50. It is filed as cell-based. In short, it runs like this:
as §1

The structures appear in SMILES notation. Some results are limits rather than exact numbers.

T1 sequence (O14744 whole entry): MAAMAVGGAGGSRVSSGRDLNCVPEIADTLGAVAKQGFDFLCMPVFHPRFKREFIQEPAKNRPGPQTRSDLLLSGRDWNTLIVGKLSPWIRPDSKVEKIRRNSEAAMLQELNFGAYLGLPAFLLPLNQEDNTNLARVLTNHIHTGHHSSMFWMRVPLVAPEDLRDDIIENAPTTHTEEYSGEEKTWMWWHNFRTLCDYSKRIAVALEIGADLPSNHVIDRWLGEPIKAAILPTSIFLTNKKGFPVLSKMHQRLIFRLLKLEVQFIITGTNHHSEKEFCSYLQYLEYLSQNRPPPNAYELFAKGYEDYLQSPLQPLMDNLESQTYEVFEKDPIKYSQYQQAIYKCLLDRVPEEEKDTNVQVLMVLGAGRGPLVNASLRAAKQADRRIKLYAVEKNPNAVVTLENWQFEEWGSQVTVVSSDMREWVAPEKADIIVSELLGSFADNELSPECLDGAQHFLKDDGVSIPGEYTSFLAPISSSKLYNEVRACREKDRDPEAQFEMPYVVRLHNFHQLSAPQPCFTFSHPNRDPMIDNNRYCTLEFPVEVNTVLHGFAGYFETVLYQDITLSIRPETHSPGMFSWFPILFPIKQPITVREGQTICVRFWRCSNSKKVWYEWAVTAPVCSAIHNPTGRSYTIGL
T1 sequence (Q9BQA1 whole entry partner): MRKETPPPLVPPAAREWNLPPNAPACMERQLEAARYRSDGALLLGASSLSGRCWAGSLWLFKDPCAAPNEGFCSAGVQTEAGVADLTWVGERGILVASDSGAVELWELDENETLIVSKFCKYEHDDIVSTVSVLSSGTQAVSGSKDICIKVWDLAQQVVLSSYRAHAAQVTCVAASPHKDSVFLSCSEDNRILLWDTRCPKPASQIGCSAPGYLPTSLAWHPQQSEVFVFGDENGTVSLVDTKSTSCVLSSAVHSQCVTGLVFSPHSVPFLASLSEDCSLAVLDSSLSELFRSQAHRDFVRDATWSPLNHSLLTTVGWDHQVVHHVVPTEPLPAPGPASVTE

With `Cc1cc(NC(=O)C(=O)N2CC(C)(C)CCC2c2ccccc2)cnc1N` (racemic) [Compound 56, N-(6-amino-5-methylpyridin-3-yl)-2-(5,5-dimethyl-2-phenylpiperidin-1-yl)-2-oxoacetamide], the IC50 on PRMT5 [1] is 50 to 500 nM; at PRMT5 [2], 50 to 500 nM; in experiment [3], 1000 to 10000 nM; in experiment [4], under 100 nM; at PRMT5 [5], 50 to 500 nM; in experiment [6], 100 to 1000 nM. Also, the “MTAP intact/deleted ratio” value in experiment [4] was “B (an IC50 ratio greater than or equal to 3 fold but lower than 10 fold)”.
On to `Cc1cncc(NC(=O)C(=O)N2C[C@@H](C)CC[C@@H]2c2cccs2)c1` (racemic) [Compound 60, rac-2-((2R,5S)-5-methyl-2-(thiophen-2-yl)piperidin-1-yl)-N-(5-methylpyridin-3-yl)-2-oxoacetamide], for which the IC50 is 50 to 500 nM at PRMT5 [1]; over 500 nM at PRMT5 [2]; over 10000 nM in experiment [3]; over 1000 nM in experiment [4]; over 500 nM at PRMT5 [5]; over 1000 nM in experiment [6]. The “MTAP intact/deleted ratio” value in experiment [4] is on record as “C (an IC50 ratio of less than 3 fold)”.
With `Cc1cc(NC(=O)C(=O)N2C[C@H](C)CC[C@@H]2c2ccnn2C)cnc1N` (racemic) [Compound 66, rac-N-(6-amino-5-methylpyridin-3-yl)-2-((2R,5R)-5-methyl-2-(1-methyl-1H-pyrazol-5-yl)piperidin-1-yl)-2-oxoacetamide], the IC50 is under 50 nM on PRMT5 [1]; 50 to 500 nM at PRMT5 [2]; over 10000 nM in experiment [3]; 100 to 1000 nM in experiment [4]; 50 to 500 nM at PRMT5 [5]; over 1000 nM in experiment [6]. Moreover, the “MTAP intact/deleted ratio” value in experiment [4] is “A (an IC50 ratio greater than or equal to 10 fold)”.
As for `Cc1cncc(NC(=O)C(=O)N2C[C@H](C)CC[C@H]2c2cccc(F)c2)c1` (racemic) [Compound 70, rac-2-[(2S,5R)-2-(3-fluorophenyl)-5-methyl-1-piperidyl]-N-(5-methyl-3-pyridyl)-2-oxo-acetamide], the IC50 is 50 to 500 nM on PRMT5 [1]; over 500 nM at PRMT5 [2]; over 10000 nM in experiment [3]; over 1000 nM in experiment [4]; over 500 nM on PRMT5 [5]; over 1000 nM in experiment [6]. Moreover, the “MTAP intact/deleted ratio” value in experiment [4] is listed as “C (an IC50 ratio of less than 3 fold)”.
For `C[C@@H]1CC[C@H](c2ccnn2C)N(C(=O)C(=O)Nc2cncc(C(N)=O)c2)C1` (racemic) [Compound 72, 5-(2-(5-methyl-2-(1-methyl-1H-pyrazol-5-yl)piperidin-1-yl)-2-oxoacetamido)nicotinamide], the IC50 at PRMT5 [1] was 50 to 500 nM; on PRMT5 [2], 50 to 500 nM; in experiment [3], over 10000 nM; in experiment [4] it was 100 to 1000 nM; at PRMT5 [5], 50 to 500 nM; in experiment [6], over 1000 nM. Besides, the “MTAP intact/deleted ratio” value in experiment [4] was “A (an IC50 ratio greater than or equal to 10 fold)”.
As to `NC(=O)c1cncc(NC(=O)C(=O)N2C[C@@H]3CC[C@@H](C3)[C@@H]2c2cccs2)c1` (racemic) [Compound 79, 5-[[2-oxo-2-[(1S,4S,5R)-4-(2-thienyl)-3-azabicyclo[3.2.1]octan-3-yl]acetyl]amino]pyridine-3-carboxamide], the IC50 at PRMT5 [1] was 50 to 500 nM; at PRMT5 [2] it was over 500 nM; in experiment [3], over 10000 nM; in experiment [4] it was 100 to 1000 nM; on PRMT5 [5] it was 50 to 500 nM; in experiment [6] it was over 1000 nM. Moreover, in experiment [4], the “MTAP intact/deleted ratio” value is reported as “A (an IC50 ratio greater than or equal to 10 fold)”.
In the case of `Cc1cncc(NC(=O)C(=O)N2C[C@H](C)CC[C@H]2c2ccc3c(c2)CCCC3)c1` (racemic) [Compound 80, N-(5-methyl-3-pyridyl)-2-[(2S,5R)-5-methyl-2-tetralin-6-yl-1-piperidyl]-2-oxo-acetamide], the IC50 at PRMT5 [1] is 50 to 500 nM; on PRMT5 [2], over 500 nM; in experiment [3], over 10000 nM; in experiment [4] it was over 1000 nM; on PRMT5 [5] it was over 500 nM; in experiment [6], over 1000 nM. Also, the “MTAP intact/deleted ratio” value in experiment [4] is listed as “C (an IC50 ratio of less than 3 fold)”.
Regarding `C[C@@H]1CC[C@@H](c2ccnn2C)N(C(=O)C(=O)Nc2cncc(C(N)=O)c2)C1` (racemic) [Compound 81, 5-(2-(5-methyl-2-(1-methyl-1H-pyrazol-5-yl)piperidin-1-yl)-2-oxoacetamido)nicotinamide], the IC50 was 50 to 500 nM at PRMT5 [1]; over 500 nM at PRMT5 [2]; over 10000 nM in experiment [3]; 100 to 1000 nM in experiment [4]; over 500 nM on PRMT5 [5]; over 1000 nM in experiment [6]. Further, in experiment [4], the “MTAP intact/deleted ratio” value is on record as “A (an IC50 ratio greater than or equal to 10 fold)”.
As for `Cc1cncc(NC(=O)C(=O)N2C[C@H](C)CC[C@H]2c2ccc3ccccc3c2)c1` (racemic) [Compound 83, rac-2-((2R,5S)-5-methyl-2-(naphthalen-2-yl)piperidin-1-yl)-N-(5-methylpyridin-3-yl)-2-oxoacetamide], the IC50 at PRMT5 [1] was 50 to 500 nM; at PRMT5 [2] it was over 500 nM; in experiment [3], over 10000 nM; in experiment [4], over 1000 nM; at PRMT5 [5] it was over 500 nM; in experiment [6], over 1000 nM. In addition, the “MTAP intact/deleted ratio” value in experiment [4] is on record as “C (an IC50 ratio of less than 3 fold)”.
As for `NC(=O)c1cncc(NC(=O)C(=O)N2CC3CCC(C3)C2c2ccccc2)c1` (racemic) [Compound 86, rac-5-[[2-oxo-2-[(1R,4R,5S)-4-phenyl-3-azabicyclo[3.2.1]octan-3-yl]acetyl]amino]pyridine-3-carboxamide], the IC50 on PRMT5 [1] is 50 to 500 nM; on PRMT5 [2], 50 to 500 nM; in experiment [3], over 10000 nM; in experiment [4], 100 to 1000 nM; at PRMT5 [5], 50 to 500 nM; in experiment [6], over 1000 nM. In experiment [4], the “MTAP intact/deleted ratio” value is “A (an IC50 ratio greater than or equal to 10 fold)”.
For `Cc1cncc(NC(=O)C(=O)N2C[C@H](C)CC[C@H]2c2ccc(F)cc2)c1` (racemic) [Compound 89, rac-2-((2R,5S)-2-(4-fluorophenyl)-5-methylpiperidin-1-yl)-N-(5-methylpyridin-3-yl)-2-oxoacetamide], the IC50 is 50 to 500 nM at PRMT5 [1]; 50 to 500 nM at PRMT5 [2]; over 10000 nM in experiment [3]; over 1000 nM in experiment [4]; over 500 nM at PRMT5 [5]; over 1000 nM in experiment [6]. The “MTAP intact/deleted ratio” value in experiment [4] is “C (an IC50 ratio of less than 3 fold)”.
On to `Cc1cncc(NC(=O)C(=O)N2C[C@H](C)CC[C@H]2c2cccc(N)c2)c1` (racemic) [Compound 91, 2-[(2R,5S)-2-(3-aminophenyl)-5-methyl-1-piperidyl]-N-(5-methyl-3-pyridyl)-2-oxo-acetamide], for which the IC50 at PRMT5 [1] was 50 to 500 nM; on PRMT5 [2], over 500 nM; in experiment [3], over 10000 nM; in experiment [4], over 1000 nM; on PRMT5 [5], over 500 nM; in experiment [6], over 1000 nM. Further, the “MTAP intact/deleted ratio” value in experiment [4] is on record as “C (an IC50 ratio of less than 3 fold)”.

The values are drawn from patent US11999727B2 (Tango Therapeutics, Inc., priority 2020, dated 2024).
